Read-outs that look alike come from different tables or passages of the source.
Target: T1, Androgen Receptor (Homo sapiens, UniProt P10275)
T1 construct: endogenous in cells; host or cells: VCaP cells
T1 sequence (P10275 1-920): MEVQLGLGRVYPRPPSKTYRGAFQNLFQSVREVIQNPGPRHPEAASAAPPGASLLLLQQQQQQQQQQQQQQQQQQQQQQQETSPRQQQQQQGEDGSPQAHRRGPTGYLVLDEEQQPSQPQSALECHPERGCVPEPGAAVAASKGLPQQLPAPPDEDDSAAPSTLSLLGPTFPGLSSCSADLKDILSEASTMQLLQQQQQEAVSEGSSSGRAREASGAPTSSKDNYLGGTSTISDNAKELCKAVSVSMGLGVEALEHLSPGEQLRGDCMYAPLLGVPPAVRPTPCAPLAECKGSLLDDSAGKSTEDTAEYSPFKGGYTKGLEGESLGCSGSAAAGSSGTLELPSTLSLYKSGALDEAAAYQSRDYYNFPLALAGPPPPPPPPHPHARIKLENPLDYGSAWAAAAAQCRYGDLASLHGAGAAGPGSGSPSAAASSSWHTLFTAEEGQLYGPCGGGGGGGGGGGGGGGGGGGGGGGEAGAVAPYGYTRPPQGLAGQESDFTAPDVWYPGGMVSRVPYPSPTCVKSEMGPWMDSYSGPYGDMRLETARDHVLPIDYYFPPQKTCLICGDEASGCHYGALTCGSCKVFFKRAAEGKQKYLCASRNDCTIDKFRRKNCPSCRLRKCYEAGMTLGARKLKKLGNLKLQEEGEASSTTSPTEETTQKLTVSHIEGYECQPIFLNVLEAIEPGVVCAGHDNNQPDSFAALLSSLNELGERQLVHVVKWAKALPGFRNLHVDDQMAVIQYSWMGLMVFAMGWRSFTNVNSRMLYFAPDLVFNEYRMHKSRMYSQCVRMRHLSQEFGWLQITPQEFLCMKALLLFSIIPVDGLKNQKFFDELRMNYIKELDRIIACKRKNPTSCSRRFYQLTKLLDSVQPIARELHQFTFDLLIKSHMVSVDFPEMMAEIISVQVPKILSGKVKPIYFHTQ
Test: Androgen Receptor ELISA assay (PathScan AR ELISA) in VCaP cells: AR degradation, Dmax and DC50
Type: cell-based
Summary of the method: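 VCaP cells, 30,000/well, grown ≥3 days in phenol red-free RPMI with 5% charcoal-stripped FBS; compound added in 0.1% DMSO with 0.1 nM R1881, 7 half-log doses, 24 h. Lysate AR quantified by PathScan sandwich ELISA, HRP/TMB read at 450 nm, giving DC50 and Dmax.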

[1] = VCaP cells; Table 36; read-out: VCaP DC50
[2] = VCaP, read-out: VCaP Dmax (%), VCaP cells; Table 36
[3] = read-out: VCaP DC50; VCaP cells; Table 36
[4] = VCaP, VCaP cells; Table 36; read-out: VCaP Dmax (%)

| Structure (SMILES) | DC50 [1] [nM] | Dmax [4] [%] | Dmax [2] [%] | Dmax (VCaP, read-out: VCaP Dmax (%)) [%] | DC50 [3] [nM] | further results |
| --- | --- | --- | --- | --- | --- | --- |
| Cc1ncsc1-c1ccc([C@H](C)NC(=O)[C@@H]2C[C@@H](O)CN2C(=O)[C@@H](NC(=O)COCCCCOc2ccc(-c3ccc(C(=O)N[C@H]4C(C)(C)[C@H](Oc5ccc(C#N)c(Cl)c5)C4(C)C)cc3)cc2)C(C)(C)C)cc1 [Example 630, (2S,4R)-1-((S)-2-(2-(4-((4′-(((1r,3r)-3-(3-chloro-4-cyanophenoxy)-2,2,4,4-tetramethylcyclobutyl)carbamoyl)-[1,1′-biphenyl]-4-yl)oxy)butoxy)acetamido)-3,3-dimethylbutanoyl)-4-hydroxy-N-((S)-1-(4-(4-methylthiazol-5-yl)phenyl)ethyl)pyrrolidine-2-carboxamide] | < 50 |  | > 71 |  |  |  |
| Cc1nccn1-c1ccc(C(C)NC(=O)C2CC(O)CN2C(=O)C(C(C)C)n2cc(-c3ccc(OC4CCN(c5ccc(N6C(=S)N(c7ccc(C#N)c(C(F)(F)F)c7)C(=O)C6(C)C)cn5)CC4)nc3)cn2)cc1 (centres unmarked) [Example 631, 1-(2-(4-(6-((1-(5-(3-(4-cyano-3-(trifluoromethyl)phenyl)-5,5-dimethyl-4-oxo-2-thioxoimidazolidin-1-yl)pyridin-2-yl)piperidin-4-yl)oxy)pyridin-3-yl)-1H-pyrazol-1-yl)-3-methylbutanoyl)-4-hydroxy-N-(1-(4-(2-methyl-1H-imidazol-1-yl)phenyl)ethyl)pyrrolidine-2-carboxamide] |  |  |  | < 25 | > 501 |  |
| C#CCCC(=O)OC(CCOCCCOCC(=O)N[C@H](C(=O)N1C[C@H](O)C[C@H]1C(=O)N[C@@H](C)c1ccc(-c2scnc2C)cc1)C(C)(C)C)CCOc1ccc(N2C(=S)N(c3ccc(C#N)c(C(F)(F)F)c3)C(=O)C2(C)C)cc1 (stereo partly drawn) [Example 632, 1-(4-(3-(4-cyano-3-(trifluoromethyl)phenyl)-5,5-dimethyl-4-oxo-2-thioxoimidazolidin-1-yl)phenoxy)-5-(3-(2-(((S)-1-((2S,4R)-4-hydroxy-2-(((S)-1-(4-(4-mehtylthiazol-5-yl)phenyl)ethyl)carbam-oyl)pyrrolidin-1-yl)-3,3-dimethyl-1-oxobutan-2-yl)amino)-2-oxoethoxy)propoxy)pen-tan-3-yl pent-4-ynoate] | > 501 |  |  |  |  | VCaP Dmax (%) (VCaP cells; Table 36): ++ (26% ≤ Dmax ≤ 50%) |
| Cc1ncoc1C12CC(CNC(=O)[C@@H]3C[C@@H](O)CN3C(=O)C(NC(=O)COCCCOCCCOc3ccc(N4C(=O)N(c5ccc(C#N)c(C(F)(F)F)c5)C(=O)C4(C)C)cc3)C(C)(C)C)(C1)C2 (stereo partly drawn) [Example 633, (2S,4)R-1-((S)-2-(2-(3-((5-(4-(3-(4-cyano-3-(trifluoromethyl)phenyl)-5,5-dimethyl-4-oxo-2-thioxoimidazolidin-1-yl)phenoxy)pentyl)oxy)propoxy)acetamido)-3,3-dimethylbutanoyl)-4-hydroxy-N-((3-(4-methyloxazol-5-yl)bicyclo[1,.1.1]pentan-1-yl)methyl)pyrrolidine-2-carboxamide] |  |  |  | < 25 | > 501 |  |
| Cc1ncsc1-c1ccc([C@H](C)NC(=O)[C@@H]2C[C@@H](O)CN2C(=O)[C@@H](NC(=O)COCCN2C[C@H]3C[C@@H]2CN3c2ccc(C(=O)N[C@H]3C(C)(C)[C@H](Oc4ccc(C#N)c(Cl)c4)C3(C)C)cn2)C(C)(C)C)cc1 [Example 636, N-((1r,3R)-3-(3-chloro-4-cyanophenoxy)-2,2,4,4-tetramethylcyclobutyl)-6-((1R,4R)-5-(2-(2-(((S)-1-((2S,4R)-4-hydroxy-2-(((S)-1-(4-(4-methylthiazol-5-yl)phenyl)ethyl)carbam-oyl)pyrrolidin-1-yl)-3,3-dimethyl-1-oxobutan-2-yl)amino)-2-oxoethoxy)ethyl)-2,5-diazabicyclo[2.2.1]hept-an-2-yl)nicotinamide] |  |  |  | > 71 | < 50 |  |
| Cc1ncsc1-c1ccc([C@H](C)NC(=O)[C@@H]2C[C@@H](O)CN2C(=O)[C@@H](NC(=O)COCCN2C[C@@H]3C[C@H]2CN3c2ccc(C(=O)N[C@H]3C(C)(C)[C@H](Oc4ccc(C#N)c(Cl)c4)C3(C)C)cn2)C(C)(C)C)cc1 [Example 637, N-((1r,3S)-3-(3-chloro-4-cyanophenoxy)-2,2,4,4-tetramethylcyclobutyl)-6-((1S,4S)-5-(2-(2-(((S)-1-((2S,4R)-4-hydroxy-2-(((S)-1-(4-(4-methylthiazol-5-yl)phenyl)ethyl)carbam-oyl)pyrrolidin-1-yl)-3,3-dimethyl-1-oxobutan-2-yl)amino)-2-oxoethoxy)ethyl)-2,5-diazabicyclo[2.2.1]hept-an-2-yl)nicotinamide] |  |  |  | > 71 | < 50 |  |
| Cc1ncsc1-c1ccc(CNC(=O)[C@@H]2C[C@@H](O)CN2C(=O)[C@@H](NC(=O)COCCN2CCN(c3ccc(C(=O)N[C@H]4C(C)(C)[C@H](Oc5ccc(C#N)c(Cl)c5)C4(C)C)cn3)CC2)C(C)(C)C)cc1 [Example 638] | < 50 | > 71 |  |  |  |  |
| Cc1ncsc1-c1ccc(CNC(=O)[C@@H]2C[C@@H](O)CN2C(=O)[C@@H](NC(=O)CN2CCC(OCCOc3ccc(C(=O)N[C@H]4C(C)(C)[C@H](Oc5ccc(C#N)c(C(F)(F)F)c5)C4(C)C)cc3)CC2)C(C)(C)C)cc1 [Example 640, (2S,4R)-1-((S)-2-(2-(4-(2-(4-(((1r,3r)-3-(4-cyano-3-(trifluorometh-yl)phenoxy)-2,2,4,4-tetramethylcyclobutyl)carbamoyl)phenoxy)eth-oxy)piperidin-1-yl)acetamido)-3,3-dimethylbutanoyl)-4-hydroxy-N-(4-(4-methylthiazol-5-yl)benzyl)pyrrolidine-2-carboxamide] | < 50 |  | > 71 |  |  |  |
| Cc1ncsc1-c1ccc([C@H](C)NC(=O)[C@@H]2C[C@@H](O)CN2C(=O)[C@@H](NC(=O)COCCCCOc2ccc(C(=O)N[C@H]3C(C)(C)[C@H](Oc4ccc(C#N)c(C(F)(F)F)c4)C3(C)C)cc2)C(C)(C)C)cc1 [Example 641, (2S,4R)-1-((S)-2-(2-(4-(4-(((1r,3r)-3-(4-cyano-3-(trifluorometh-yl)phenoxy)-2,2,4,4-tetramethylcyclobutyl)carbamoyl)phenoxy)butoxy)acetamido)-3,3-dimethylbutanoyl)-4-hydroxy-N-((S)-1-(4-(4-methylthiazol-5-yl)phenyl)ethyl)pyrrolidine-2-carboxamide] | < 50 |  | > 71 |  |  |  |

Further lines, with some results ahead:

| DC50 [1] [nM] | Dmax [4] [%] | Structure (SMILES) | Dmax [2] [%] | Dmax (VCaP, read-out: VCaP Dmax (%)) [%] | DC50 [3] [nM] | further results |
| --- | --- | --- | --- | --- | --- | --- |
| < 50 | > 71 | Cc1ncsc1-c1ccc([C@H](C)NC(=O)[C@@H]2C[C@@H](O)CN2C(=O)[C@@H](NC(=O)CO[C@H](C)CN2CCN(c3ccc(C(=O)N[C@H]4C(C)(C)[C@H](Oc5ccc(C#N)c(Cl)c5)C4(C)C)cc3)CC2)C(C)(C)C)cc1 [Example 634, (2S,4R)-1-((S)-2-(2-(((R)-1-(4-(4-(((1r,3R)-3-(3-chloro-4-cyanophenoxy)-2,2,4,4-tetramethylcyclobutyl)carbamoyl)phenyl)piper-azin-1-yl)propan-2-yl)oxy)acetamido)-3,3-dimethylbutanoyl)-4-hydroxy-N-((S)-1-(4-(4-methylthiazol-5-yl)phenyl)ethyl)pyrrolidine-2-carboxamide] |  |  |  |  |
| < 50 |  | Cc1ncsc1-c1ccc([C@H](C)NC(=O)[C@@H]2C[C@@H](O)CN2C(=O)[C@@H](NC(=O)COCCCOCCCCCOc2ccc(C(=O)N[C@H]3C(C)(C)[C@H](Oc4ccc(C#N)c(Cl)c4)C3(C)C)cc2)C(C)(C)C)cc1 [Example 635, (2S,4R)-1-((S)-2-(2-(3-((5-(4-(((1r,3r)-3-(3-chloro-4-cyanophenoxy)-2,2,4,4-tetramethylcyclobutyl)carbamoyl)phenoxy)pen-tyl)oxy)propoxy)aceta-mido)-3,3-dimethylbutanoyl)-4-hydroxy-N-((S)-1-(4-(4-methylthiazol-5-yl)phenyl)ethyl)pyrrolidine-2-carboxamide] | 51 to 70 |  |  |  |
| < 50 | > 71 | Cc1ncsc1-c1ccc([C@H](C)NC(=O)[C@@H]2C[C@@H](O)CN2C(=O)[C@@H](NC(=O)CO[C@@H](C)CN2CCN(c3ccc(C(=O)N[C@H]4C(C)(C)[C@H](Oc5ccc(C#N)c(Cl)c5)C4(C)C)cc3)CC2)C(C)(C)C)cc1 [Example 639, (1S,4R)-1-((S)-2-(2-(((S)-1-(4-(4-(((1r,3S)-3-(3-chloro-4-cyanophenoxy)-2,2,4,4-tetramethylcyclobutyl)carbamoyl)phenyl)piper-azin-1-yl)propan-2-yl)oxy)acetamido)-3,3-dimethylbutanoyl)-4-hydroxy-N-((S)-1-(4-(4-methylthiazol-5-yl)phenyl)ethyl)pyrrolidine-2-carboxamide] |  |  |  |  |
| < 50 | > 71 | Cc1ncsc1-c1ccc([C@H](C)NC(=O)C2C[C@@H](O)CN2C(=O)[C@@H](NC(=O)COCCC2(CCNc3ccc(C(=O)N[C@H]4C(C)(C)[C@H](Oc5ccc(C#N)c(Cl)c5)C4(C)C)cc3)COC2)C(C)(C)C)cc1 (some centres unmarked) [Example 642] |  |  |  |  |

Reference: patent US11427548B2 (Arvinas Operations, Inc., priority 2015, dated 2022)
